Converted amounts (≈) assume the structure as drawn.
Experiments:
Enterococcus faecalis = test: Antibacterial activity against Enterococcus faecalis ATCC 29212 assessed as bacterial growth inhibition; type: functional
Escherichia coli [1] = test: Antibacterial activity against Escherichia coli ATCC 25922 assessed as bacterial growth inhibition; type: functional
Staphylococcus aureus [2] = test: Antibacterial activity against Staphylococcus aureus ATCC 29213 assessed as bacterial growth inhibition; type: functional
Bacillus subtilis = test: Antibacterial activity against Bacillus subtilis ATCC 6633 assessed as bacterial growth inhibition; type: functional
Candida albicans = test: Antifungal activity against Candida albicans ATCC 10231 assessed as fungal growth inhibition; type: functional
Escherichia coli [3] = test: Inhibition of Escherichia coli RNA polymerase at 200 uM relative to control
Pseudomonas aeruginosa = test: Antibacterial activity against Pseudomonas aeruginosa ATCC 27853 assessed as bacterial growth inhibition; type: functional
Staphylococcus aureus [4] = test: Antibacterial activity against methicillin-resistant Staphylococcus aureus assessed as bacterial growth inhibition; type: functional
HepG2 = test: Cytotoxicity against human HepG2 cells assessed as reduction in cell viability by MTT assay; type: cell-based
Staphylococcus aureus [5] = test: Antibacterial activity against vancomycin-resistant Staphylococcus aureus assessed as bacterial growth inhibition; type: functional
Staphylococcus aureus [6] = test: Antibacterial activity against rifampicin-resistant Staphylococcus aureus assessed as bacterial growth inhibition; type: functional
[7] = Inhibition of Escherichia coli RNA polymerase
[8] = Inhibition of recombinant Escherichia coli RNA polymerase

## O=C(O)c1cn(C2CC2)c2cc(N3CCNCC3)c(F)cc2c1=O [CIPROFLOXACIN]
Enterococcus faecalis
  MIC: 0.5 µg/mL (≈ 1.51 µM)
Escherichia coli [1]
  MIC: 0.00625 µg/mL (≈ 0.0189 µM)
Staphylococcus aureus [2]
  MIC: 0.078 µg/mL (≈ 0.235 µM)
Bacillus subtilis
  MIC: 0.125 µg/mL (≈ 0.377 µM)

## COc1ccc(-n2c3cssc-3c(NC(=O)CCCCCCC(=O)c3c(O)cc(C)oc3=O)c2=O)c(OC)c1
Enterococcus faecalis
  MIC: > 128 µg/mL
Escherichia coli [1]
  MIC: > 128 µg/mL
Staphylococcus aureus [2]
  MIC: 64 µg/mL (≈ 112 µM)
Bacillus subtilis
  MIC: 32 µg/mL (≈ 55.9 µM)
Candida albicans
  MIC: > 128 µg/mL
Escherichia coli [3]
  inhibition: 43.4%
Pseudomonas aeruginosa
  MIC: > 128 µg/mL

## COc1ccc(-n2c3cssc-3c(NC(=O)N(C)CCOC(=O)CCCC(=O)c3c(O)cc(C)oc3=O)c2=O)c(OC)c1
Enterococcus faecalis
  MIC: 2 µg/mL (≈ 3.17 µM)
Staphylococcus aureus [4]
  MIC: 1 to 2 µg/mL (≈ 1.58 to 3.17 µM)
Escherichia coli [1]
  MIC: > 128 µg/mL
Staphylococcus aureus [2]
  MIC: 2 µg/mL (≈ 3.17 µM)
Bacillus subtilis
  MIC: 32 µg/mL (≈ 50.7 µM)
Candida albicans
  MIC: > 128 µg/mL
HepG2
  IC50: 5.32 µM
Escherichia coli [3]
  inhibition: 23.8%
Pseudomonas aeruginosa
  MIC: > 128 µg/mL
Staphylococcus aureus [5]
  MIC: 2 to 4 µg/mL (≈ 3.17 to 6.33 µM)
Staphylococcus aureus [6]
  MIC: 2 to 4 µg/mL (≈ 3.17 to 6.33 µM)

## COc1ccc(-n2c3cssc-3c(NC(=O)CCCCC(=O)c3c(O)cc(C)oc3=O)c2=O)c(OC)c1
Enterococcus faecalis
  MIC: 64 µg/mL (≈ 118 µM)
Escherichia coli [1]
  MIC: > 128 µg/mL
Staphylococcus aureus [2]
  MIC: 2 µg/mL (≈ 3.67 µM)
Bacillus subtilis
  MIC: 16 µg/mL (≈ 29.4 µM)
Candida albicans
  MIC: > 128 µg/mL
Escherichia coli [3]
  inhibition: 42.4%
Pseudomonas aeruginosa
  MIC: > 128 µg/mL

## CO[C@H]1/C=C/O[C@@]2(C)Oc3c(C)c(O)c4c(O)c(c(/C=N/N5CCN(C)CC5)c(O)c4c3C2=O)NC(=O)/C(C)=C\C=C\[C@H](C)[C@H](O)[C@@H](C)[C@@H](O)[C@@H](C)[C@H](OC(C)=O)[C@@H]1C [RIFAMPIN]
Enterococcus faecalis
  MIC: 0.5 µg/mL (≈ 0.608 µM)
Staphylococcus aureus [4]
  MIC: 0.125 to 0.25 µg/mL (≈ 0.152 to 0.304 µM)
Escherichia coli [1]
  MIC: 8 µg/mL (≈ 9.72 µM)
Staphylococcus aureus [2]
  MIC: 0.5 µg/mL (≈ 0.608 µM)
Bacillus subtilis
  MIC: 0.125 µg/mL (≈ 0.152 µM)
Candida albicans
  MIC: > 64 µg/mL
HepG2
  IC50: 145 µM
Pseudomonas aeruginosa
  MIC: > 64 µg/mL
[7]
  IC50: 0.14 µM
Staphylococcus aureus [5]
  MIC: 0.0625 to 0.125 µg/mL (≈ 0.0759 to 0.152 µM)
Staphylococcus aureus [6]
  MIC: > 64 µg/mL

## COc1ccc(-n2c3cssc-3c(NC(=O)OCCOC(=O)CCCCCCC(=O)c3c(O)cc(C)oc3=O)c2=O)c(OC)c1
Enterococcus faecalis
  MIC: 2 µg/mL (≈ 3.03 µM)
Staphylococcus aureus [4]
  MIC: 1 to 2 µg/mL (≈ 1.51 to 3.03 µM)
Escherichia coli [1]
  MIC: > 128 µg/mL
Staphylococcus aureus [2]
  MIC: 1 µg/mL (≈ 1.51 µM)
Bacillus subtilis
  MIC: 32 µg/mL (≈ 48.4 µM)
Candida albicans
  MIC: > 128 µg/mL
HepG2
  IC50: 7.04 µM
Pseudomonas aeruginosa
  MIC: > 128 µg/mL
[7]
  IC50: 16.1 µM
Staphylococcus aureus [5]
  MIC: 2 to 4 µg/mL (≈ 3.03 to 6.05 µM)
Staphylococcus aureus [6]
  MIC: 1 to 2 µg/mL (≈ 1.51 to 3.03 µM)

## COc1ccc(-n2c3cssc-3c(NC(=O)CCCC(=O)c3c(O)cc(C)oc3=O)c2=O)c(OC)c1
Enterococcus faecalis
  MIC: 16 µg/mL (≈ 30.2 µM)
Staphylococcus aureus [4]
  MIC: 1 to 2 µg/mL (≈ 1.88 to 3.77 µM)
Escherichia coli [1]
  MIC: > 64 µg/mL
Staphylococcus aureus [2]
  MIC: 2 µg/mL (≈ 3.77 µM)
Bacillus subtilis
  MIC: 32 µg/mL (≈ 60.3 µM)
Candida albicans
  MIC: > 128 µg/mL
HepG2
  IC50: 29 µM
Escherichia coli [3]
  inhibition: 35.4%
Pseudomonas aeruginosa
  MIC: > 128 µg/mL
Staphylococcus aureus [5]
  MIC: 4 to 8 µg/mL (≈ 7.54 to 15.1 µM)
Staphylococcus aureus [6]
  MIC: 2 to 4 µg/mL (≈ 3.77 to 7.54 µM)

## COc1ccc(-n2c3cssc-3c(NC(=O)OCCOC(=O)CCCC(=O)c3c(O)cc(C)oc3=O)c2=O)c(OC)c1
Enterococcus faecalis
  MIC: 4 µg/mL (≈ 6.47 µM)
Staphylococcus aureus [4]
  MIC: 1 to 2 µg/mL (≈ 1.62 to 3.23 µM)
Escherichia coli [1]
  MIC: > 128 µg/mL
Staphylococcus aureus [2]
  MIC: 1 µg/mL (≈ 1.62 µM)
Bacillus subtilis
  MIC: 32 µg/mL (≈ 51.7 µM)
Candida albicans
  MIC: > 128 µg/mL
HepG2
  IC50: 1.97 µM
Escherichia coli [3]
  inhibition: 41.3%
Pseudomonas aeruginosa
  MIC: > 128 µg/mL
Staphylococcus aureus [5]
  MIC: 4 to 8 µg/mL (≈ 6.47 to 12.9 µM)
Staphylococcus aureus [6]
  MIC: 1 to 2 µg/mL (≈ 1.62 to 3.23 µM)

## COc1ccc(-n2c3cssc-3c(NC(=O)NCCOC(=O)CCCCC(=O)c3c(O)cc(C)oc3=O)c2=O)c(OC)c1
Enterococcus faecalis
  MIC: 16 µg/mL (≈ 25.3 µM)
Escherichia coli [1]
  MIC: > 64 µg/mL
Staphylococcus aureus [2]
  MIC: 4 µg/mL (≈ 6.33 µM)
Bacillus subtilis
  MIC: 128 µg/mL (≈ 203 µM)
Candida albicans
  MIC: > 128 µg/mL
Escherichia coli [3]
  inhibition: 36.5%
Pseudomonas aeruginosa
  MIC: > 128 µg/mL

## COc1ccc(-n2c3cssc-3c(NC(=O)NCCOC(=O)CCCC(=O)c3c(O)cc(C)oc3=O)c2=O)c(OC)c1
Enterococcus faecalis
  MIC: 4 µg/mL (≈ 6.48 µM)
Escherichia coli [1]
  MIC: > 64 µg/mL
Staphylococcus aureus [2]
  MIC: 32 µg/mL (≈ 51.8 µM)
Bacillus subtilis
  MIC: 32 µg/mL (≈ 51.8 µM)
Candida albicans
  MIC: > 128 µg/mL
Escherichia coli [3]
  inhibition: 25.3%
Pseudomonas aeruginosa
  MIC: > 128 µg/mL

## CN[C@H](CC(C)C)C(=O)N[C@H]1C(=O)N[C@@H](CC(N)=O)C(=O)N[C@H]2C(=O)N[C@H]3C(=O)N[C@H](C(=O)N[C@H](C(=O)O)c4cc(O)cc(O)c4-c4cc3ccc4O)[C@H](O)c3ccc(c(Cl)c3)Oc3cc2cc(c3O[C@@H]2O[C@H](CO)[C@@H](O)[C@H](O)[C@H]2O[C@H]2C[C@](C)(N)[C@H](O)[C@H](C)O2)Oc2ccc(cc2Cl)[C@H]1O [VANCOMYCIN]
Staphylococcus aureus [4]
  MIC: 1 to 2 µg/mL (≈ 0.69 to 1.38 µM)
Escherichia coli [1]
  MIC: > 128 µg/mL
Bacillus subtilis
  MIC: 1 µg/mL (≈ 0.69 µM)
Staphylococcus aureus [5]
  MIC: > 64 µg/mL
Staphylococcus aureus [6]
  MIC: 1 to 2 µg/mL (≈ 0.69 to 1.38 µM)

## COc1ccc(-n2c3cssc-3c(NC(=O)N(C)CCOC(=O)CCCCCCC(=O)c3c(O)cc(C)oc3=O)c2=O)c(OC)c1
Enterococcus faecalis
  MIC: 8 µg/mL (≈ 11.9 µM)
Escherichia coli [1]
  MIC: > 64 µg/mL
Staphylococcus aureus [2]
  MIC: 16 µg/mL (≈ 23.7 µM)
Bacillus subtilis
  MIC: 32 µg/mL (≈ 47.5 µM)
Candida albicans
  MIC: > 128 µg/mL
Escherichia coli [3]
  inhibition: 32.1%
Pseudomonas aeruginosa
  MIC: > 128 µg/mL

## COc1ccc(-n2c3cssc-3c(NC(=O)OCCOC(=O)CCCCC(=O)c3c(O)cc(C)oc3=O)c2=O)c(OC)c1
Enterococcus faecalis
  MIC: 16 µg/mL (≈ 25.3 µM)
Staphylococcus aureus [4]
  MIC: 1 to 2 µg/mL (≈ 1.58 to 3.16 µM)
Escherichia coli [1]
  MIC: > 128 µg/mL
Staphylococcus aureus [2]
  MIC: 2 µg/mL (≈ 3.16 µM)
Bacillus subtilis
  MIC: 32 µg/mL (≈ 50.6 µM)
Candida albicans
  MIC: > 128 µg/mL
HepG2
  IC50: 9.43 µM
Pseudomonas aeruginosa
  MIC: > 128 µg/mL
[7]
  IC50: 65.9 µM
Staphylococcus aureus [5]
  MIC: 2 to 4 µg/mL (≈ 3.16 to 6.32 µM)
Staphylococcus aureus [6]
  MIC: 2 to 4 µg/mL (≈ 3.16 to 6.32 µM)

## CCC/C(C)=C/C=C(\C)C(=O)c1c(O)cc([C@H](C)CC/C=C/NC(=O)OC)oc1=O [MYXOPORIN A]
[8]
  IC50: 24 µM

## COc1ccc(-n2c3cssc-3c(NC(=O)NCCOC(=O)CCCCCCC(=O)c3c(O)cc(C)oc3=O)c2=O)c(OC)c1
Enterococcus faecalis
  MIC: 32 µg/mL (≈ 48.5 µM)
Escherichia coli [1]
  MIC: > 128 µg/mL
Staphylococcus aureus [2]
  MIC: 128 µg/mL (≈ 194 µM)
Bacillus subtilis
  MIC: 128 µg/mL (≈ 194 µM)
Candida albicans
  MIC: > 128 µg/mL
Pseudomonas aeruginosa
  MIC: > 128 µg/mL
[7]
  IC50: 56.3 µM

## COc1ccc(-n2c3cssc-3c(NC(=O)N(C)CCOC(=O)CCCCC(=O)c3c(O)cc(C)oc3=O)c2=O)c(OC)c1
Enterococcus faecalis
  MIC: 16 µg/mL (≈ 24.8 µM)
Staphylococcus aureus [4]
  MIC: 1 to 2 µg/mL (≈ 1.55 to 3.1 µM)
Escherichia coli [1]
  MIC: > 128 µg/mL
Staphylococcus aureus [2]
  MIC: 2 µg/mL (≈ 3.1 µM)
Bacillus subtilis
  MIC: 32 µg/mL (≈ 49.6 µM)
Candida albicans
  MIC: > 128 µg/mL
HepG2
  IC50: 2.76 µM
Pseudomonas aeruginosa
  MIC: > 128 µg/mL
[7]
  IC50: 45.9 µM
Staphylococcus aureus [5]
  MIC: 4 to 8 µg/mL (≈ 6.19 to 12.4 µM)
Staphylococcus aureus [6]
  MIC: 1 to 2 µg/mL (≈ 1.55 to 3.1 µM)
